# Experiments:
# [1] = In-lab water resistance (% ML465 removed after water exposure); format: physicochemical; conditions: for In-lab Water Resistance (% ML465 Removed after Water Exposure (n = 2)): 30% Tributyl acetyl citrate
# Procedure: (§1) In-vivo and in-vitro studies were conducted to compare wash-off resistance of formulations prepared with lipophilic solvents and with polymers.
# The in-vivo studies of Table 1 were followed with in-vitro studies conducted to assess water resistance of “conventional” solvent systems. Conventional pour-on solvent formulations described below were tested using ML465 as the active under exposure to water for 20 and 40 minutes.
# Next, the water resistance of the inventive solvent systems was tested in vitro.
# horn fly = assay: in-vivo efficacy studies A and B: pour-on formulations for control of horn fly on cows; parameters: species or system Haematobia irritans on cows; conditions: 30% Tributyl acetyl citrate
# Procedure: Although many different actives may work with the formulation of the invention, 1H-pyrazole-3-carbonitrile, 1-[2,6-dichloro-4-(trifluoromethyl)phenyl]-5-methyl-4-[(trifluoromethyl)sulfinyl] (i.e., ML465) is the compound used to test topical formulations for control of horn fly on cows for a duration of one month or longer.
# as §1
# It can be seen that the amount of ML465 washed off is at, or below, 10% of the applied dose, indicating a sharp decrease upon exposure to water. This was not sufficient to support thirty days efficacy duration. Thus, efficacy may depend on resistance of the solvent system to water exposure.
smiles,measurement,setting,value
"Cc1c([S+]([O-])C(F)(F)F)c(C#N)nn1-c1c(Cl)cc(C(F)(F)F)cc1Cl (stereo not shown) [ML465, 1H-pyrazole-3-carbonitrile, 1-[2,6-dichloro-4-(trifluoromethyl)phenyl]-5-methyl-4-[(trifluoromethyl)sulfinyl]]",In-lab Water Resistance (% ML465 Removed after Water Exposure (n = 2)),"[1]; 20 min, 5% PPG-15 stearyl ether, 6% Isobutene H25, Soybean Oil",5.2%
same,In-lab Water Resistance (% ML465 Removed after Water Exposure (n = 2)),"[1]; 20 min, 5% PPG-15 stearyl ether, 10% Isopropyl palmitate, 10% ceteary octanote, 10% butyl stearate, Soybean Oil",8.8%
same,In-lab Water Resistance (% ML465 Removed after Water Exposure (n = 2)),"[1]; 20 min, 5% PPG-15 stearyl ether, Soybean oil",7.5%
same,In-lab Water Resistance (% ML465 Removed after Water Exposure (n = 2)),"[1]; 20 min, Miglyol 840",2.4%
same,In-lab Water Resistance (% ML465 Removed after Water Exposure (n = 2)),"[1]; 40 min, 5% PPG-15 stearyl ether, 6% Isobutene H25, Soybean Oil",7.3%
same,In-lab Water Resistance (% ML465 Removed after Water Exposure (n = 2)),"[1]; 40 min, 5% PPG-15 stearyl ether, 10% Isopropyl palmitate, 10% ceteary octanote, 10% butyl stearate, Soybean Oil",9.2%
same,In-lab Water Resistance (% ML465 Removed after Water Exposure (n = 2)),"[1]; 40 min, 5% PPG-15 stearyl ether, Soybean oil",10.1%
same,In-lab Water Resistance (% ML465 Removed after Water Exposure (n = 2)),"[1]; 40 min, Miglyol 840",5.2%
same,"amount of ML465 washed off, % of the applied dose","[1]; traditional formulations of trials A and B, exposure to water",≤ 10%
same,Duration of above 90% efficacy,"horn fly; study A, 3.0% w/v ML465, Miglyol 840",17 days
same,Duration of above 90% efficacy,"horn fly; study B, 0.5% w/v ML465, 5% Polypropylene Glycol (15) stearyl ether, Soybean Oil",17 days
same,Duration of above 90% efficacy,"horn fly; study B, 1.0% w/v ML465, 3% Polypropylene Glycol (15) stearyl ether, 8.5% Isopropyl palmitate, 7% Isobutene H25, Soybean Oil",17 days
same,Duration of above 90% efficacy,"horn fly; study B, 1.0% w/v ML465, 3% Polypropylene Glycol (15) stearyl ether, 10% Isopropyl palmitate, 7% cetearyl octanoate, 10% butyl stearate, Soybean Oil",24 days

# — US9756852B2, “Topical delivery formulation” (MERIAL INC., priority 2014, dated 2017)
